Data reported in patent publication US9029399B2, “17α-hydroxylase/C17,20-lyase inhibitors” (Novartis AG, priority 2011, dated 2015).

Legend:
[1] = molecular target: Human CYP17 enzyme (Cytochrome P450, 17-20 lyase) (Homo sapiens (Human), UniProt P05093); experiment: CYP17 lyase assay, recombinant human CYP17 enzyme, 17-α-hydroxy pregnenolone [21-3H] substrate; type: biochemical; settings: for IC50: recombinant human CYP17, first value of Human/Rat cell, read-out: Lyase IC 50 Human
Excerpt: 1) Cvtochrome P450, 17-20 Lyase (CYP17-Lyase) Assay Development Using Recombinant Human CYP17 Enzyme and 17-α-Hydroxy Pregnenolone [21-3H] as the Substrate
Cytochrome P450, 17-α-Hydroxylase, 17-20 lyase (CYP17) is a multi functional enzyme that plays a key role in the biosynthesis of steroid hormones. […] In the hydroxylation reaction, it converts progesterone and pregnenolone to the corresponding hydroxylated products 17-α-hydroxy progesterone and 17-α-hydroxy pregnenolone. In the lyase reaction, it catalyzes the conversion of these hydroxylated substrates to Androstenedione and Dehydroepiandrosterone (DHEA) respectively. In the Cyp17 lyase assay described here, the conversion of 17-α-hydroxy pregnenolone to Dehydroepiandrosterone and acetic acid is being monitored.
The conversion of 17-α-hydroxy pregnenolone to Dehydroepiandrosterone is accompanied by the release of acetic acid. In the Cyp17 lyase assay, 17-α-hydroxy pregnenolone labeled with tritium (3H) at position 21 is used as the substrate. Chloroform extraction removes the radioactive steroids and acetic acid is taken into aqueous layer. The tritiated acetic acid released in the assay thus extracted is quantified to determine the enzyme activity.
Human Cyp 17 gene was cloned and expressed in Adenoviral expression system in A549 cell lines. The purified cell membrane preparations were used as the source for Human CYP17 enzyme. Total protein concentration: 8 mg/mL.
For routine screening, the assay was set up with 16 μg of enzyme in 50 μL reaction volume. 17α-hydroxy pregnenolone [21-3H] was added to a final concentration of […] NADPH is used at a final concentration of 4.2 mM. Total reaction volume was made up to 50 μL with 50 mM Phosphate buffer pH 7.5. The reaction mixture was incubated at room temperature for 90 minutes with gentle shaking. The reaction was stopped by the addition of 100 μl, of buffer. 500 μl, of 5% freshly prepared activated charcoal was added to the solution and mixed well by vortexing. The samples were centrifuged at 17568×g for 5 minutes. (14000 rpm). The supernatant was carefully transferred to fresh tube and 1.3 mL of scintillation fluid was added, mixed by vortexing.
The measurements were carried out in 2.0 mL Eppendorf™ tubes. Each tube was counted for 1 minute. The amount of tritiated acetic acid released is proportional to the lyase activity. Percent lyase activity in presence of inhibitor was calculated using the formula given below.
[formula] Sample: Enzyme reaction in presence of inhibitor. Positive control: Enzyme reaction without inhibitor but containing DMSO at 1% final concentration. Blank—Contains all reagents except enzyme. % Inhibition=100%−% Lyase activity
For IC50 determination, the % inhibition was plotted as a function of inhibitor concentration. The data was fitted to sigmoidal equation using Graphpad Prism® software IV to generate IC50 values.

Rat CYP 17 Lyase = Rat CYP 17 Lyase (Rattus norvegicus (Rat), UniProt P11715); experiment: Rat CYP17 lyase model, rat testes microsomes; type: biochemical; settings: substrate 0.5 μM, second value of Human/Rat cell, read-out: Lyase IC 50 Rat
Method: For the Rat CYP 17 Lyase Model:
The same procedure described above was used but using rat testes microsomes as the source and with a substrate concentration of 0.5 μM.

Sequence of Human CYP17 enzyme (Cytochrome P450, 17-20 lyase) (P05093 whole entry): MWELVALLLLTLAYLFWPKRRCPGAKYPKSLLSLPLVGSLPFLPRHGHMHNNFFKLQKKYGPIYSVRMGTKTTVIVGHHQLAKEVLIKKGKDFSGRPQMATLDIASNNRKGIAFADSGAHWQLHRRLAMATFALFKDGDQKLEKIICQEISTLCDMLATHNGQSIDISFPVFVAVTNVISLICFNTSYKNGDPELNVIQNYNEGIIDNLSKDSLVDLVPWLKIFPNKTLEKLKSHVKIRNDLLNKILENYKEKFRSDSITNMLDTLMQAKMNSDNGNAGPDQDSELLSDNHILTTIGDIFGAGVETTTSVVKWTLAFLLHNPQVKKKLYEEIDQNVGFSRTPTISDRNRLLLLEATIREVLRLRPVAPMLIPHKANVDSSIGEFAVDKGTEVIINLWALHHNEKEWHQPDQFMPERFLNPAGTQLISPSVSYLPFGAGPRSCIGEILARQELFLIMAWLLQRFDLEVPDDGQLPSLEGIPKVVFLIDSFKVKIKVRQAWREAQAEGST
Sequence of Rat CYP 17 Lyase (P11715 whole entry): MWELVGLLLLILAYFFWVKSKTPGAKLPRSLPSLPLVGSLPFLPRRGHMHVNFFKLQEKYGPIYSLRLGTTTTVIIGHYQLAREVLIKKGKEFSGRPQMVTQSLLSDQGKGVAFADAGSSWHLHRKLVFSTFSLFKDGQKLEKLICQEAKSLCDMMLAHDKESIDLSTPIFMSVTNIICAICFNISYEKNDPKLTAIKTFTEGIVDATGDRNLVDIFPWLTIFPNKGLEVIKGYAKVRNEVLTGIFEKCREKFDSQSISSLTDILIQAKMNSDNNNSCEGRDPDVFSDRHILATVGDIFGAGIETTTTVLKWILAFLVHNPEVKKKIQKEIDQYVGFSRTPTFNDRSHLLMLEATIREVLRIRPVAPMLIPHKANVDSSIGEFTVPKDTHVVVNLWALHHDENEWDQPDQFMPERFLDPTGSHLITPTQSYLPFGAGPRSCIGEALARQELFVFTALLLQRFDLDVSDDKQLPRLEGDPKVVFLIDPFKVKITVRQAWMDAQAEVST

Structure (SMILES)	IC50 [1] [nM]	IC50 (Rat CYP 17 Lyase) [nM]	inhibition at 10 µM [1] [%]
O=C1N(c2ccnc(Cl)c2)CCN1c1cnccc1C1CC1 [Example 1A, 1-(2-chloropyridin-4-yl)-3-(4-cyclopropylpyridin-3-yl)imidazolidin-2-one]	8	2.7	–
O=C1N(c2ccnc(C(F)(F)F)c2)CCN1c1cnccc1C1CC1 [Example 2A, 1-(4-cyclopropylpyridin-3-yl)-3-(2-(trifluoromethyl)pyridin-4-yl)imidazolidin-2-one]	9	1.1	–
COc1cc(N2CCN(c3cnccc3C3CC3)C2=O)ccn1 [Example 9A, 1-(4-cyclopropylpyridin-3-yl)-3-(2-methoxypyridin-4-yl)imidazolidin-2-one]	42	4.6	–
O=C1N(c2cnccc2C2CC2)[C@@H]2C[C@@H]2N1c1ccnc(C(F)(F)F)c1 [Example 32A-II, (1R,5S)-2-(4-cyclopropylpyridin-3-yl)-4-(2-(trifluoromethyl)pyridin-4-yl)-2,4-diazabicyclo[3.1.0]hexan-3-one]	6.9	3	–
O=C1N(c2ccnc(C3CC3)c2)CCN1c1cnccc1C1CC1 [Example 39A, 1-(4-cyclopropylpyridin-3-yl)-3-(2-cyclopropylpyridin-4-yl)imidazolidin-2-one]	12	–	–
COc1cc(N2CCN(c3cnccc3C3CC3)C2=O)ncn1 [Example 40A, 1-(4-cyclopropylpyridin-3-yl)-3-(6-methoxypyrimidin-4-yl)imidazolidin-2-one]	84	–	–
Cc1cc(N2CCN(c3cnccc3C3CC3)C2=O)ncn1 [Example 41A, 1-(4-cyclopropylpyridin-3-yl)-3-(6-methylpyrimidin-4-yl)imidazolidin-2-one]	70	–	–
Cc1cc(N2CCN(c3cnccc3C3CC3)C2=O)ncc1F [Example 42A, 1-(4-cyclopropylpyridin-3-yl)-3-(5-fluoro-4-methylpyridin-2-yl)imidazolidin-2-one]	22	–	–
O=C1N(c2ccnc(C3CC3)n2)CCN1c1cnccc1C1CC1 [Example 43A, 1-(4-cyclopropylpyridin-3-yl)-3-(2-cyclopropylpyrimidin-4-yl)imidazolidin-2-one]	36	–	–
Cc1nccc(N2CCN(c3cnccc3C3CC3)C2=O)n1 [Example 44A, 1-(4-cyclopropylpyridin-3-yl)-3-(2-methylpyrimidin-4-yl)imidazolidin-2-one]	397	–	–
O=C1N(c2cc(Cl)nc(C(F)(F)F)n2)CCN1c1cnccc1C1CC1 [Example 45A, 1-(6-chloro-2-(trifluoromethyl)pyrimidin-4-yl)-3-(4-cyclopropylpyridin-3-yl) imidazolidin-2-one]	10	–	–
O=C1N(c2cc(Cl)nc(Cl)c2)CCN1c1cnccc1C1CC1 [Example 46A, 1-(4-cyclopropylpyridin-3-yl)-3-(2,6-dichloropyridin-4-yl)imidazolidin-2-one]	1.9	–	–
O=C1N(c2cc(Cl)nc(C3CC3)c2)CCN1c1cnccc1C1CC1 [Example 47A, 1-(2-chloro-6-cyclopropylpyridin-4-yl)-3-(4-cyclopropylpyridin-3-yl)imidazolidin-2-one]	5.2	–	–
O=C1N(c2cc(C3CC3)nc(C(F)(F)F)c2)CCN1c1cnccc1C1CC1 [Example 48A, 1-(2-cyclopropyl-6-(trifluoromethyl)pyridin-4-yl)-3-(4-cyclopropylpyridin-3-yl)imidazolidin-2-one]	4.75	–	–
O=C1N(c2cc(C(F)(F)F)nc(C(F)(F)F)c2)CCN1c1cnccc1C1CC1 [Example 49A, 1-(2,6-bis(trifluoromethyl)pyridin-4-yl)-3-(4-cyclopropylpyridin-3-yl)imidazolidin-2-one]	6	–	–
O=C1N(c2ccnc(C(F)(F)F)c2)CCN1c1c(C2CC2)ccnc1O [Example 50A, 1-(4-cyclopropyl-2-hydroxypyridin-3-yl)-3-(2-(trifluoromethyl)pyridin-4-yl)imidazolidin-2-one]	–	–	51
